Measured values published in US20210355235A1, “Compositions and Methods For Treating Cancer with Anti-Renalase antibodies and Anti-PD1 antibodies” (YALE UNIVERSITY, priority 2017, published 2021).

Key:
[1] = system: renal ischemia; experiment: renal ischemia and reperfusion in WT mice; format: in vivo, mouse; conditions: 30 minutes of renal ischemia and reperfusion
Protocol: FIG. 3 is a chart showing that ERK or AKT inhibition abrogates protective effect of renalase peptide: WT mice subjected to sham surgery or to 30 minutes of renal ischemia and reperfusion; RP-[…] or vehicle (saline) injected 10 minutes before renal ischemia. ERK inhibitor PD98059 or the PI3K/AKT inhibitor wortmannin abrogated RP-[…]'s protective effect.

[2] = system: MiaPaCa2 cells; conditions: pretreatment before rRNLS 30 μg/ml

Structure (SMILES) | effect on RP-H220's protective effect [1] | effect on rRNLS' protective effect [2]
COc1cccc(-c2cc(=O)c3ccccc3o2)c1N [PD98059] | abrogated | 
N#CC(=C(/N)Sc1ccccc1N)/C(C#N)=C(\N)Sc1ccccc1N [U0126] |  | abrogated
